According to patent publication US20250215039A1, “NUCLEOSIDES FOR TREATING CANCER” (PRIMEFOUR THERAPEUTICS, INC., priority 2022, published 2025):
Like-named read-outs stand apart in the source and are kept apart here.

Key:
cancer cell lines = test: Cancer cell proliferation activity (CellTiterGlo, 72 h); type: cell-based; details: for IC50: 72 h, read-out: IC50
Summary of the method: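 Cells seeded overnight at 37 °C, then dosed with compound at 0.1% final DMSO and incubated 72 h at 37 °C (5% or 10% CO2 by medium).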

[1] = target: human cytidine deaminase (CDA) (Homo sapiens, UniProt P32320); test: Metabolism by human cytidine deaminase (CDA), substrate absorbance at 290 nm; details: 12 nM CDA, 50 and 200 uM substrate, 37° C., pH 7.5; figure legends FIG. 4-9
Chain of human cytidine deaminase (CDA) (P32320 whole entry): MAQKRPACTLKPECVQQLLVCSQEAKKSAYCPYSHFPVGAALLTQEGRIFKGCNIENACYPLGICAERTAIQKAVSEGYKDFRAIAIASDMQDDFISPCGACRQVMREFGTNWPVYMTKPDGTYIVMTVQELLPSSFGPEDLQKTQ

Compound: C[C@]1(CO)O[C@@H](n2cc(F)c(N)nc2=O)C[C@@H]1O [Cpd. No. 4, 4-amino-5-fluoro-1-((2R,4S,5R)-4-hydroxy-5-(hydroxymethyl)-5-methyltetrahydrofuran-2-yl)pyrimidin-2(1H)-one]
- IC50 (cancer cell lines; 5637 cell line (bladder)): 30 nM
- IC50 (cancer cell lines; CLS439 cell line (bladder)): 17600 nM
- IC50 (cancer cell lines; HS729 cell line (muscle)): 1410 nM
- IC50 (cancer cell lines; JAR cell line (placenta)): > 50000 nM
- IC50 (cancer cell lines; U20S cell line, bone): > 50000 nM
- IC50 (cancer cell lines; Homo sapiens, 22Rv1, 72 h, 22RV1 cell line (prostate)): 400 nM
- IC50 (cancer cell lines; Homo sapiens, 786-0, 72 h, 786O cell line (kidney)): > 50000 nM
- IC50 (cancer cell lines; Homo sapiens, A204, 72 h, A204 cell line (muscle)): 140 nM
- IC50 (cancer cell lines; Homo sapiens, A549, 72 h, A549 cell line, lung): 240 nM
- IC50 (cancer cell lines; Homo sapiens, A673, 72 h, A673 cell line (bone)): 510 nM
- IC50 (cancer cell lines; Homo sapiens, A2780, 72 h, A2780 cell line (ovary)): 680 nM
- IC50 (cancer cell lines; Homo sapiens, A-375, 72 h, A375 cell line (skin)): 730 nM
- IC50 (cancer cell lines; Homo sapiens, A-431, 72 h, A431 cell line (skin)): 40 nM
- IC50 (cancer cell lines; Homo sapiens, ACHN, ACHN cell line (kidney)): 50 nM
- IC50 (cancer cell lines; Homo sapiens, ASPC1, 72 h, ASPC1 cell line (pancreas)): 10 nM
- IC50 (cancer cell lines; Homo sapiens, BT-20, 72 h, BT20 cell line (breast)): > 50000 nM
- IC50 (cancer cell lines; Homo sapiens, BXPC-3, 72 h, BXPC3 cell line (pancreas)): 10 nM
- IC50 (cancer cell lines; Homo sapiens, C-33-A, C33A cell line, endometrial): 130 nM
- IC50 (cancer cell lines; Homo sapiens, CAKI-1, 72 h, CAKI1 cell line (kidney)): 400 nM
- IC50 (cancer cell lines; Homo sapiens, COLO 205, 72 h, COLO205 cell line (colon)): 60 nM
- IC50 (cancer cell lines; Homo sapiens, COLO-678, 72 h, COLO678 cell line (colon)): > 50000 nM
- IC50 (cancer cell lines; Homo sapiens, Ca-Ski, CASKI cell line, endometrial): 6170 nM
- IC50 (cancer cell lines; Homo sapiens, Caco-2, 72 h, CACO2 cell line (colon)): > 50000 nM
- IC50 (cancer cell lines; Homo sapiens, Calu-6, 72 h, CALU6 cell line (lung)): 250 nM
- IC50 (cancer cell lines; Homo sapiens, DLD-1, 72 h, DLD1 cell line (colon)): 3660 nM
- IC50 (cancer cell lines; Homo sapiens, DU-145, 72 h, DU145 cell line (prostate)): 1340 nM
- IC50 (cancer cell lines; Homo sapiens, EFO-21, 72 h, EFO21 cell line (ovary)): 3620 nM
- IC50 (cancer cell lines; Homo sapiens, EJ-28, 72 h, EJ28 cell line (bladder)): 190 nM
- IC50 (cancer cell lines; Homo sapiens, Granta-519, 72 h, GRANTA-519 cell line (hematological)): 30 nM
- IC50 (cancer cell lines; Homo sapiens, HCT-15, 72 h, HCT15 cell line (colon)): 1580 nM
- IC50 (cancer cell lines; Homo sapiens, HCT-116, 72 h, HCT116 cell line (colon)): 1180 nM
- IC50 (cancer cell lines; Homo sapiens, HEK293, 72 h, HEK293 cell line (kidney)): > 50000 nM
- IC50 (cancer cell lines; Homo sapiens, HL-60, 72 h, HL-60 cell line (hematological)): 810 nM
- IC50 (cancer cell lines; Homo sapiens, HT-29, 72 h, HT29 cell line (colon)): 160 nM
- IC50 (cancer cell lines; Homo sapiens, HT-1080, 72 h, HT1080 cell line (connective tissue)): 190 nM
- IC50 (cancer cell lines; Homo sapiens, HeLa, HELA cell line, endometrial): > 50000 nM
- IC50 (cancer cell lines; Homo sapiens, HepG2, 72 h, HEPG2 cell line (liver)): 540 nM
- IC50 (cancer cell lines; Homo sapiens, Hs-578T, HS578T cell line, breast): > 50000 nM
- IC50 (cancer cell lines; Homo sapiens, IGROV-1, 72 h, IGROV1 cell line (ovary)): 1650 nM
- IC50 (cancer cell lines; Homo sapiens, IMR-90, 72 h, IMR90 cell line, lung): > 50000 nM
- IC50 (cancer cell lines; Homo sapiens, J82, 72 h, J82 cell line (bladder)): 1080 nM
- IC50 (cancer cell lines; Homo sapiens, JEG-3, 72 h, JEG3 cell line (placenta)): 100 nM
- IC50 (cancer cell lines; Homo sapiens, JIMT-1, 72 h, JIMT1 cell line (breast)): 890 nM
- IC50 (cancer cell lines; Homo sapiens, K562, 72 h, K-562 cell line (hematological)): > 50000 nM
- IC50 (cancer cell lines; Homo sapiens, Kasumi 1, 72 h, KASUMI-1 cell line (hematological)): 400 nM
- IC50 (cancer cell lines; Homo sapiens, L-363, 72 h, L-363 cell line (hematological)): > 50000 nM
- IC50 (cancer cell lines; Homo sapiens, LoVo, LOVO cell line (colon)): 30 nM
- IC50 (cancer cell lines; Homo sapiens, MCF7, 72 h, MCF7 cell line (breast)): 1760 nM
- IC50 (cancer cell lines; Homo sapiens, MDA-MB-231, 72 h, MDAMB231 cell line (breast)): 370 nM
- IC50 (cancer cell lines; Homo sapiens, MDA-MB-435, 72 h, MDAMB435 cell line (skin)): 2520 nM
- IC50 (cancer cell lines; Homo sapiens, MDA-MB-436, 72 h, MDAMB436 cell line (breast)): 140 nM
- IC50 (cancer cell lines; Homo sapiens, MDA-MB-468, 72 h, MDAMB468 cell line (breast)): 770 nM
- IC50 (cancer cell lines; Homo sapiens, MG-63, 72 h, MG63 cell line (bone)): 680 nM
- IC50 (cancer cell lines; Homo sapiens, MHH-ES-1, 72 h, MHHES1 cell line (bone)): 1930 nM
- IC50 (cancer cell lines; Homo sapiens, MIA PaCa-2, 72 h, MIAPACA2 cell line (pancreas)): > 50000 nM
- IC50 (cancer cell lines; Homo sapiens, MINO, MINO cell line (hematological)): 10 nM
- IC50 (cancer cell lines; Homo sapiens, MV4-11, 72 h, MV4-11 cell line (hematological)): 140 nM
- IC50 (cancer cell lines; Homo sapiens, NCI-H23, 72 h, NCI-H23 cell line (lung)): 980 nM
- IC50 (cancer cell lines; Homo sapiens, NCI-H82, 72 h, NCIH82 cell line (lung)): 390 nM
- IC50 (cancer cell lines; Homo sapiens, NCI-H292, 72 h, NCIH292 cell line (lung)): > 50000 nM
- IC50 (cancer cell lines; Homo sapiens, NCI-H460, 72 h, NCIH460 cell line (lung)): 200 nM
- IC50 (cancer cell lines; Homo sapiens, OVCAR-3, 72 h, OVCAR3 cell line (ovary)): 3090 nM
- IC50 (cancer cell lines; Homo sapiens, OVCAR-4, 72 h, OVCAR4 cell line (ovary)): > 50000 nM
- IC50 (cancer cell lines; Homo sapiens, PANC-1, 72 h, PANC1 cell line (pancreas)): 1620 nM
- IC50 (cancer cell lines; Homo sapiens, PC-3, 72 h, PC3 cell line (prostate)): 2600 nM
- IC50 (cancer cell lines; Homo sapiens, PLC-PRF-5, 72 h, PLCPRF5 cell line (liver)): > 50000 nM
- IC50 (cancer cell lines; Homo sapiens, Panc1005, 72 h, PANC1005 cell line (pancreas)): > 50000 nM
- IC50 (cancer cell lines; Homo sapiens, RD, RD cell line (muscle)): 420 nM
- IC50 (cancer cell lines; Homo sapiens, Ramos, RAMOS cell line (hematological)): 160 nM
- IC50 (cancer cell lines; Homo sapiens, SAOS-2, 72 h, SAOS2 cell line (bone)): 90 nM
- IC50 (cancer cell lines; Homo sapiens, SF-268, 72 h, SF268 cell line (brain)): 220 nM
- IC50 (cancer cell lines; Homo sapiens, SF-295, 72 h, SF295 cell line (brain)): 3900 nM
- IC50 (cancer cell lines; Homo sapiens, SK-BR-3, 72 h, SKBR3 cell line (breast)): 30 nM
- IC50 (cancer cell lines; Homo sapiens, SK-HEP1, 72 h, SKHEP1 cell line (liver)): 770 nM
- IC50 (cancer cell lines; Homo sapiens, SK-LMS-1, 72 h, SKLMS1 cell line (uterus)): 1150 nM
- IC50 (cancer cell lines; Homo sapiens, SK-MEL-5, 72 h, SKMEL5 cell line, skin): > 50000 nM
- IC50 (cancer cell lines; Homo sapiens, SK-MEL-28, 72 h, SKMEL28 cell line (skin)): 2900 nM
- IC50 (cancer cell lines; Homo sapiens, SK-N-AS, SKNAS cell line (brain)): > 50000 nM
- IC50 (cancer cell lines; Homo sapiens, SK-N-SH, SKNSH cell line (brain)): > 50000 nM
- IC50 (cancer cell lines; Homo sapiens, SK-OV-3, 72 h, SKOV3 cell line (ovary)): 410 nM
- IC50 (cancer cell lines; Homo sapiens, SNB-75, 72 h, SNB75 cell line (brain)): 2820 nM
- IC50 (cancer cell lines; Homo sapiens, SU-DHL10, 72 h, SU-DHL-10 cell line (hematological)): 330 nM
- IC50 (cancer cell lines; Homo sapiens, SU-DHL-6, 72 h, SU-DHL-6 cell line (hematological)): 450 nM
- IC50 (cancer cell lines; Homo sapiens, SW-620, 72 h, SW620 cell line (colon)): 240 nM
- IC50 (cancer cell lines; Homo sapiens, T-24, 72 h, T24 cell line (bladder)): 400 nM
- IC50 (cancer cell lines; Homo sapiens, TE-671, 72 h, TE671 cell line (muscle)): 170 nM
- IC50 (cancer cell lines; Homo sapiens, THP-1, 72 h, THP-1 cell line (hematological)): 2140 nM
- IC50 (cancer cell lines; Homo sapiens, U-87 MG, U87MG cell line (brain)): 1870 nM
- IC50 (cancer cell lines; Homo sapiens, UMUC3, 72 h, UMUC3 cell line (bladder)): 1340 nM
- IC50 (cancer cell lines; Homo sapiens, UO-31, 72 h, UO31 cell line (kidney)): > 50000 nM
- IC50 (cancer cell lines; Homo sapiens, WSU-NHL, WSU-NHL cell line (hematological)): 380 nM
- IC50 (cancer cell lines; MT-3, 72 h, MT3 cell line (breast)): 60 nM
- IC50 (cancer cell lines; NCI-H358M, NCIH358M cell line (lung)): 70 nM
- IC50 (cancer cell lines; PBMC, PBMC (hematological)): 700 nM
- IC50 (cancer cell lines; RD-ES, RDES cell line (bone)): 6010 nM
- cytotoxicity against a panel of cell lines (waterfall plot) (cancer cell lines; panel of cancer and non-cancer cell lines, figure legends FIG. 1-3): selectively cytotoxic in cancer cell lines with high DDR activity
- metabolism (deamination) by human CDA (line graph) [1]: more stable than cytidine and gemcitabine
